Laboratory results taken from PMC9888311, “Neonatal NET-Inhibitory Factor improves survival in the cecal ligation and puncture model of polymicrobial sepsis by inhibiting neutrophil extracellular traps” (Frontiers in Immunology, 2023).
Where no end group is shown, it is not given here.

How the values were obtained:
[1] = test system: neutrophil extracellular traps (NETs), peritoneal fluid; assay: Peritoneal fluid NET formation (confocal live cell imaging, MPO-DNA complex ELISA); assay type: in vivo, mouse (outbred Swiss Webster); settings: 24 hours after CLP; nNIF 1 mg/kg IV or meropenem 25 mg/kg IP at 4 and 10 hours after CLP; compared to vehicle, scrambled peptide and meropenem groups; N=5-9
Procedure: We evaluated mouse NET formation via live cell imaging with confocal microscopy as previously described ([12]). Sham mice and CLP animals from all experimental groups were euthanized by CO2 inhalation and the peritoneal fluid was collected. An aliquot of 100 μL of the peritoneal fluid was placed on glass coverslips coated with poly-L-lysine for 1 hour at 37°C in 5% CO2/95% air. NET formation was assessed using cell-permeable (SYTO Green, Molecular Probes) and cell-impermeable (SYTOX Orange, Molecular Probes) DNA fluorescent stains. Using a FV3000 1X81 confocal microscope and FluoView software (Olympus) with 20X and 60X objectives, we obtained z-series images over a range of 20 μm with a 1 μm step size for each field. We processed these images using FluoView (Olympus), Photoshop (Adobe), and ImageJ (NIH) software. An in-house ELISA was used to quantify MPO-DNA complexes in plasma and peritoneal fluid from sham and CLP mice 24 hours after the surgical procedure ([24], [27]). Briefly, after overnight coating with anti-MPO capture antibody in calcium carbonate coating buffer (2 µg/ml; 0400-0002, Bio-Rad) at 4°C, a 96-well plate was blocked with 2.5% bovine serum albumin in PBS for 2 hours at room temperature. The plate was subsequently washed, before incubating for 90 minutes at room temperature with 10% peritoneal fluid in blocking buffer. […]

[2] = test system: peritoneal fluid and stool microbiomes; assay: 16S rRNA gene sequencing of peritoneal fluid and stool microbiomes; assay type: in vivo, mouse (outbred Swiss Webster); settings: CLP-treated mice; for relative abundance of Enterobacteriaceae in stool and peritoneal fluid: ANCOM-BC, relative to vehicle; for Bray-Curtis distance of peritoneal fluid microbiome from stool microbiome: each group compared to vehicle
Procedure: Libraries were constructed for sequencing approximately 460 bp of the variable V3 and V4 regions of 16S rRNA using a two-step PCR process. Genomic DNA (5 to 20 ng) was PCR amplified for 14 cycles using the Quick-16S Primer Set V3-V4 (Zymo Research cat# D6405-2-400) with NEBNext Ultra II Q5 Master Mix (NEB cat# M0544). Dual unique indexing adapters (Illumina cat#20027213) were added to the amplicons during a second PCR reaction (6 cycles). 16S libraries were qualified on an Agilent Technologies 4150 TapeStation using a D1000 ScreenTape assay (cat# 5067-5582 and 5067-5583, respectively) and the molarity of adapter-modified molecules was defined by quantitative PCR using the Kapa Biosystems Kapa Library Quant Kit (cat#KK4824). Libraries were normalized and pooled (12 pM) and chemically denatured along with 15% molar representation of PhiX library in preparation for sequencing on an Illumina MiSeq instrument in paired-end 300 cycle mode. Raw 16S sequences were read in and processed with […] 2021.11 plugins ([33]). In brief, demultiplexed and quality-filtered sequences were first trimmed of primer and linker sequences with the Cutadapt plugin, then denoised to ASVs using DADA2 ([34], [35]). […] Diversity metrics, distances, and statistical significance of beta diversity groupings by permanova were further calculated within […]2 artefacts were then read into R and genera tested for differential abundances using ANCOM-BC implemented in the microbiomeMarker package ([37], [38]). Scripts used for processing and analyses have been deposited along with processed QIIME2 artifact files at: https://github.com/wzacs1/Araujo_nNIF. Raw sequences have been deposited in the NCBI SRA under BioProject accession PRJNA884333.

[3] = test system: peritoneal fluid leukocytes; assay: Peritoneal fluid WBC and neutrophil counts (flow cytometry); assay type: in vivo, mouse (outbred Swiss Webster); settings: 24 hours after CLP; nNIF 1 mg/kg IV at 4 and 10 hours after CLP; N=5-9
Procedure: (§1) Twenty-four hours after CLP or sham surgery, total white blood cell and differential neutrophil counts were determined both in whole blood samples collected from orbital vein using heparinized capillaries tubes and peritoneal fluid by washing with 3 mL of PBS, respectively. Then, samples were incubated with CD45 APC-Cy7 (Biolegend), CD11b PE-Cy7 (EBioscience), Ly6G BV510 (Biolegend), and CD16/CD32 (Fc-block, EBioscience) for 30 minutes at 37 °C. Thirty minutes later, cells were washed, fixed, and ran on a Beckman Coulter Cytoflex located in the University of Utah Flow Cytometry Core.

whole blood leukocytes = assay: Whole blood WBC and neutrophil counts (flow cytometry); assay type: in vivo, mouse (outbred Swiss Webster); settings: 24 hours after CLP; nNIF 1 mg/kg IV at 4 and 10 hours after CLP; N=3-5
Procedure: as §1

TNF-α = assay: Peritoneal fluid cytokine multiplex array, TNF-α; assay type: in vivo, mouse (outbred Swiss Webster); settings: 24 h after CLP; nNIF 1 mg/kg at 4 and 10 hours; compared to all other treatment groups; N=5-9
Procedure: (§2) Peritoneal fluid cytokines were analyzed using a mouse Cytokine/Chemokine Panel I Multiplex Array (Millipore Sigma catalog# HCYTMAG60-PMX41) according to manufacturer’s instructions on a Luminex 200 instrument. Bacterial counts in whole blood and peritoneal lavage were determined 24 hours after CLP. Briefly, peritoneal fluid and blood samples were collected, serially diluted, plated on LB-agar dishes, and incubated at 37°C for 24 hours. The number of bacterial colonies was counted and expressed as CFU/mL.

IL-6 = assay: Peritoneal fluid cytokine multiplex array, IL-6; assay type: in vivo, mouse (outbred Swiss Webster); settings: 24 h after CLP; nNIF 1 mg/kg at 4 and 10 hours; N=5-9
Procedure: as §2

IL-10 = assay: Peritoneal fluid cytokine multiplex array, IL-10; assay type: in vivo, mouse (outbred Swiss Webster); settings: 24 h after CLP; nNIF 1 mg/kg at 4 and 10 hours; N=5-9
Procedure: as §2

[4] = single dose 10 mg/kg, retro-orbital venous injection; LC/MS/MS; N=2-3 mice/time point
Procedure: PK plasma sample generation – Mature Swiss-Webster mice were inject ed with nNIF (10 mg/kg,
0.003% DMSO in PBS) via retro-orbital venous injection. Blood samples were obtain ed via
cheek bleed and cardiac puncture at 5, 15, 30, and 45 minutes, and at 1, 4, 8, 12, 24, and 48 hours
after nNIF injection. Only three blood samples were drawn from each indiv idual mouse, and
multiple mice were used to generate 2 -3 plasma samples per timepoint for PK analysis. Blood
samples were collected i n heparin coated capillary tubes, centrifuged at 1000 rpm for 10 minutes,
and snap-frozen in liquid nitrogen. Plasma samples were kept frozen at -80°C until analysis.
Mouse plasma PK quantitative bioanalysis – Flash -frozen mouse samples were thawed on ice
and spiked with 100 nM nNIF-H; precipitated with five volumes of 90% acetonitrile, 1% acetic
acid, and 0.1% formic acid in water; and filtered through a Phree Phosphol ipid Removal
Extraction Plate (Pheno menex). Standards with known concent rations of nNIF (100 pM to 25
μM) and nNIF-H (100 n M) spiked into mouse plasma were p repared using the same methods.
Supernatants were an alyzed by LC/MS/MS on an ExionLC UHPLC system coupled to a QTRAP […]
positive-ion mode. Mass transitions (m/z) used for quantitation were 846.9/ 976.1 and
determined from the nNIF/nNIF-H peak area ratio in extracted-ion chromat ograms compared […]

Compound | peritoneal fluid NET formation (MPO-DNA complexes, confocal microscopy) [1] | relative abundance of Enterobacteriaceae in stool and peritoneal fluid [2] | Bray-Curtis distance of peritoneal fluid microbiome from stool microbiome [2] | peritoneal WBC and neutrophil counts [3] | whole blood white blood cell and neutrophil counts (whole blood leukocytes) | TNF-α level in peritoneal fluid (TNF-α) | IL-6 level in peritoneal fluid (IL-6) | IL-10 level in peritoneal fluid (IL-10) | peritoneal fluid and stool microbiomes (beta diversity, Bray-Curtis, PERMANOVA) ([2]; 16S rRNA V3/V4 sequencing, N=5-7 per group) | nNIF plasma concentration-time course [4]
C[C@@H](O)[C@H]1C(=O)N2C(C(=O)O)=C(S[C@@H]3CN[C@H](C(=O)N(C)C)C3)[C@H](C)[C@H]12 [meropenem, reference compound] | equivalent between the vehicle and meropenem arms | decreased in stool and peritoneal fluid | more similar stool and peritoneal microbiomes |  |  |  |  |  |  | 
KFNKPFVFLMIEQNTKSPLFMGKVVNPTQ-OH [nNIF, neonatal NET-Inhibitory Factor] | reduced NET formation qualitatively and quantitatively | did not affect their abundances | as dissimilar from their stool counterparts as were vehicle controls | without altering peritoneal WBC and neutrophil counts | without affecting white blood cell or neutrophil counts | decreased TNF-α levels in peritoneal fluid | decreased compared to meropenem treated mice but not compared to the nNIF-SCR treatment group | lack of an nNIF-associated alteration in IL-10 levels | did not alter the peritoneal fluid and stool microbiomes | initial rapid decrease in nNIF plasma concentrations followed by a slower rate of decay
